{"source": "paper PMC5994915", "about": "(Bioorganic & medicinal chemistry, 2017)", "key": {"[1]": {"tested_on": "class IIa HDACs in HEL cells", "conditions": "Boc-Lys (triflouroacetyl)-AMC substrate, n ≥ 2"}, "[2]": {"tested_on": "class I HDACs in HEL cells", "conditions": "Boc-Lys (acetyl)-AMC substrate, n ≥ 2"}}}
{"molecule": "Nc1ccc(-c2cccs2)cc1NC(=O)c1ccc(CNC(=O)CN2C(=O)C3(OCCCO3)c3cc(Cl)ccc32)cc1", "note": "[23a, N-(2-Amino-5-(thiophen-2-yl)phenyl)-4-((2-(5-chloro-2-oxospiro[indoline-3,2′-[1,3]dioxan]-1-yl)acetamido)methyl)benza-mide]", "values": [{"measurement": "HDAC class IIa cellular IC50", "setting": "[1]", "value": "not active"}, {"measurement": "HDAC class I cellular IC50", "setting": "[2]", "value": "not active"}]}
{"molecule": "Nc1ccccc1NC(=O)c1ccc(NC(=O)CN2C(=O)C3(OCCCO3)c3cc(Br)ccc32)cc1", "note": "[9a, N-(2-aminophenyl)-4-(2-(5-bromo-2-oxospiro[indoline-3,2′-[1,3]dioxan]-1-yl)acetamido)ben-zamide]", "values": [{"measurement": "HDAC class IIa cellular IC50", "setting": "[1]", "value": "not active"}, {"measurement": "HDAC class I cellular IC50", "setting": "[2]", "value": "not active"}]}
